Assay results as given in patent publication US20190029975A1, “TOCOPHEROL AND TOCOTRIENOL QUINONE DERIVATIVES FOR INCREASING THIOSULFATE LEVELS OR DECREASING HYDROGEN SULFIDE LEVELS” (BIOELECTRON TECHNOLOGY CORPORATION, priority 2016, published 2019).

How the values were obtained:
[1] = tested on: mouse striatal cells (Q7); experiment: Thiosulfate production in EPI-743 treated ATG-stressed Q7 cells; assay type: cell-based; conditions: for effect on cysteine levels: Q7 cells, 10 μM ATG or 100 nM EPI-743; for Cysteine Calculated Concentration / Thiosulfate Peak Area: 100 nM 743
Protocol: Conditionally immortalized wild-type mouse striatal cells (Q7, passage #45) were seeded at 300,000 cells per well in 6-well plates containing 3 mL/well of DMEM (High Glucose) containing 10% FBS, penicillin/streptomycin, and 400 μg/mL G418. After an overnight incubation at 33C, the cells were treated for 4-5 hours with either EPI-743 (100 nM final concentration) or DMSO vehicle (1% final concentration). Aurothioglucose (final concentration 10 μM) was added prior to an 18-hour treatment period. Cells were washed 1× with Hanks' buffered saline solution (HBSS), counted, and then resuspended in monobromobimane capping solution.
Cysteine and thiosulfate levels are shown below. Aurothioglucose (ATG) is an inhibitor of thioredoxin reductase-1 and has been repeatedly used as a tool compound to increase oxidative stress. […] Cysteine levels were unaffected by ATG or EPI-743 treatment.

[2] = Plasma thiosulfate in Leigh Syndrome patients treated with EPI-743 (EPI743-12-002 Leigh Trial); assay type: in vivo, human
Protocol: As part of the Edison EPI743-12-002 Leigh Trial, 17 Leigh Syndrome patients were treated with EPI-743 (15 mg/kg up to 200 mg three times a day) for 12 months. An additional 14 Leigh Syndrome patients received placebo for the first six months, and were randomized to either 5 or 15 mg/kg up to 200 mg three times a day EPI-743 for the subsequent six months.
Plasma thiosulfate concentrations were measured at various time points, over a 12 month period, for patients on drug and placebo. Plasma samples were collected from Leigh Syndrome patients, and the samples processed according to the procedure described in Example 2. […]
(§1) The samples were analyzed by measuring the absolute concentration of H2S, thiosulfate, and glutathione persulfide using 6-point calibration curves. […]
(§2) An API mass spectrometer (AB6500 Qtrap) coupled to a high performance liquid chromatograph (Eksigent MicroLC 200 Plus) was used to quantify H2S, thiosulfate, and glutathione persulfide and their internal standards from all biological fluids and calibrants. […]
(§3) Bromobimane (BB) and Bromobimane internal standard (B-IS) were injected before each calibration curve. […] Statistical calculations and analytical run acceptance were determined based on criteria set forth in the FDA/EMA guidance where applicable. Fundamental parameters such as accuracy, precision, selectivity, sensitivity, reproducibility, and stability were monitored.

[3] = tested on: SQOR products (thiosulfate, glutathione persulfide); experiment: Correlation of plasma H2S with the SQOR products thiosulfate and glutathione persulfide in Leigh Syndrome patients; assay type: in vivo, human; conditions: all subjects at all time points
Protocol: A quantitative method for the analysis of H2S, thiosulfate, and glutathione persulfide in biological matrices via liquid chromatography coupled to atmospheric pressure ionization (API) tandem mass spectrometry (LC-MS/MS) is provided.
Patient plasma samples were collected with informed consent from the patients described in Example 1. The sulfur containing compounds were derivatized with bromo bimane to stabilize the samples for measurement. Samples were stored at −80° C. and shipped for analysis to Edison under dry ice.
as §1, §2
as §3, with “monitored. […]” for “monitored.”

Structure (SMILES)	effect on cysteine levels [1]	increase in mean plasma thiosulfate ([2]; Leigh Syndrome patients, across all time points over 12 months, versus baseline, placebo virtually no change)	mean plasma thiosulfate ([2]; subjects treated with EPI-743, across all time points, baseline 0.21 μM) [µM]	H2S/glutathione persulfide ratio versus untreated patients [3]	H2S/thiosulfate ratio versus untreated patients [3]	Cysteine Calculated Concentration ([1]; 10 μM ATG, 1% DMSO control 0.272) [µM]	Thiosulfate Peak Area ([1]; 10 μM ATG, 1% DMSO control 3466)	increase in thiosulfate, EPI-743 treated versus untreated cells ([1]; ATG-stressed cells (10 μM ATG), 100 nM EPI-743)	Cysteine Calculated Concentration ([1]; No Stress, 1% DMSO control 0.251) [µM]	Thiosulfate Peak Area ([1]; No Stress, 1% DMSO control 2881)
OC[C@H]1O[C@H]([S-])[C@H](O)[C@@H](O)[C@@H]1O.[Au+] [ATG, Aurothioglucose, reference compound]	unaffected	–	–	–	–	–	–	–	–	–
CC(C)=CCC/C(C)=C/CC/C(C)=C/CC[C@@](C)(O)CCC1=C(C)C(=O)C(C)=C(C)C1=O [EPI-743]	unaffected	greater than 100%	0.54	lower	lower	0.281	37903	approximately 10 fold	0.264	3656
